From ChEMBL document CHEMBL1156042, “First stereoselective total synthesis and anticancer activity of new amide alkaloids of roots of pepper” (Bioorg Med Chem Lett, 2009)
In brackets after ≈: the same amount, converted by molar mass.

How the values were obtained:
Type in all cases: functional, cell-based
MCF7 = assay: Anticancer activity against human MCF7 cells by MTT method
HT-29 = assay: Anticancer activity against human HT-29 cells by MTT method
A549 = assay: Anticancer activity against human A549 cells by MTT method
[1] = Homo sapiens, HT-29, read-out: IC50
[2] = Homo sapiens, A549, read-out: IC50

| IC50 (MCF7) | IC50 (HT-29; [1]) | IC50 (A549; [2]) | IC50 (A549; a549) | IC50 (HT-29; ht-29) | Structure (SMILES) |
| --- | --- | --- | --- | --- | --- |
| Not Active | 125 µg/mL (≈ 464 µM) | 135 µg/mL (≈ 501 µM) | – | – | CCCCC[C@@H](O)[C@H](O)/C=C/C(=O)N1CCCCC1 |
| Not Active | 181 µg/mL (≈ 789 µM) | – | Not Active | – | CCC[C@@H](O)[C@H](O)/C=C/C(=O)NCC(C)C |
| Not Active | – | 182 µg/mL (≈ 676 µM) | – | Not Active | CCCCC[C@@H](O)[C@@H](O)/C=C/C(=O)N1CCCCC1 |
